What follows are molecules tested against DGKα (Homo sapiens (Human), UniProt P23743) (assay: Human DGKα kinase activity inhibition assay (ADP-Glo)). Conditions: recombinant full-length human DGKα, 55 μM ATP, 7 μM 1,2-dioleoyl-sn-glycerol, read-out: IC50 values of examples in in vitro human DGKa kinase activity inhibition assays.
Sequence of DGKα (P23743 other isoform, or with tags, fused parts or gaps): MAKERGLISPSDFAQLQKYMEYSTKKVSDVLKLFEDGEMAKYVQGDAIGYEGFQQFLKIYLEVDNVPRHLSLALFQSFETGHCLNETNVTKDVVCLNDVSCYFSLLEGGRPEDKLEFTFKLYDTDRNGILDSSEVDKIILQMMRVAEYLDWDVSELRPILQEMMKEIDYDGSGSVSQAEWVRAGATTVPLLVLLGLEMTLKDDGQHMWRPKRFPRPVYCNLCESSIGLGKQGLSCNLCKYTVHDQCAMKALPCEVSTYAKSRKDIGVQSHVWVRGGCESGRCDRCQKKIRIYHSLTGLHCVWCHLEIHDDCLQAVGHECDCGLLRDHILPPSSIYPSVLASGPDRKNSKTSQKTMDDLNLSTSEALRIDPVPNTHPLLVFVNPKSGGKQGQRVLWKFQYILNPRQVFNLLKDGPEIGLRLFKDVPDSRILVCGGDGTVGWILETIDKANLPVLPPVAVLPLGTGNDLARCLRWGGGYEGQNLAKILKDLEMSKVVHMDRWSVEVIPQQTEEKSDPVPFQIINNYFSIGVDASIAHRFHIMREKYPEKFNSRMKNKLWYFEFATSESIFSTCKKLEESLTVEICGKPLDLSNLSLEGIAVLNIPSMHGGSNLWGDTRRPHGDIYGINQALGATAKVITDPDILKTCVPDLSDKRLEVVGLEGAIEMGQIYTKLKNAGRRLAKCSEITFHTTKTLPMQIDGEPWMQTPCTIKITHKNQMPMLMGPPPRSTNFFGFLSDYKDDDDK
Assay type: biochemical
In short: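 Recombinant full-length human DGKα (C-terminal FLAG, from insect cells) phosphorylated 1,2-dioleoyl-sn-glycerol presented in octyl-glucopyranoside micelles. ADP formed was quantified by ADP-Glo luminescence. Compounds were added from 100-fold DMSO stocks.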
In the case of Cc1ccccc1-c1nnc(C2CCN(c3c(C#N)c(=O)n(C)c4ccccc34)CC2)o1 [Example 351, 1-methyl-4-{4-[5-(2-methylphenyl)-1,3,4-oxadiazol-2-yl]piperidin-1-yl}-2-oxo-1,2-dihydroquinoline-3-carbonitrile], the IC50 is reported as 0.087 µM. Molecule Cc1ccc(-c2nnc(C3CCN(c4c(C#N)c(=O)n(C)c5ccccc45)CC3)o2)cc1 [Example 352, 1-methyl-4-{4-[5-(4-methylphenyl)-1,3,4-oxadiazol-2-yl]piperidin-1-yl}-2-oxo-1,2-dihydroquinoline-3-carbonitrile] has an IC50 of 0.113 µM. In the case of Cc1cccc(-c2nnc(C3CCN(c4c(C#N)c(=O)n(C)c5ccccc45)CC3)o2)c1 [Example 353, 1-methyl-4-{4-[5-(3-methylphenyl)-1,3,4-oxadiazol-2-yl]piperidin-1-yl}-2-oxo-1,2-dihydroquinoline-3-carbonitrile], the IC50 is reported as 0.254 µM. For Cn1c(=O)c(C#N)c(N2CCC(c3nnc(-c4cccc(Cl)c4)o3)CC2)c2ccccc21 [Example 354, 4-{4-[5-(3-chlorophenyl)-1,3,4-oxadiazol-2-yl]piperidin-1-yl}-1-methyl-2-oxo-1,2-dihydroquinoline-3-carbonitrile], the IC50 was 0.112 µM. Cn1c(=O)c(C#N)c(N2CCC(C)(c3nnc(-c4cccc(Cl)c4)o3)CC2)c2ccccc21 [Example 355, 4-{4-[5-(3-chlorophenyl)-1,3,4-oxadiazol-2-yl]-4-methylpiperidin-1-yl}-1-methyl-2-oxo-1,2-dihydroquinoline-3-carbonitrile] was tested, and the IC50 was 0.14 µM. For Cn1c(=O)c(C#N)c(N2CCC(c3ccc4c(c3)C(C)(C)CN4)CC2)c2ccccc21 [Example 356, 4-[4-(3,3-dimethyl-2,3-dihydro-1H-indol-5-yl)piperidin-1-yl]-1-methyl-2-oxo-1,2-dihydroquinoline-3-carbonitrile], the IC50 was 0.0051 µM. CN1C(=O)C(C)(C)c2cc(C3CCN(c4c(C#N)c(=O)n(C)c5ccccc45)CC3)ccc21 [Example 358, 1-methyl-2-oxo-4-[4-(1,3,3-trimethyl-2-oxo-2,3-dihydro-1H-indol-5-yl)piperidin-1-yl]-1,2-dihydroquinoline-3-carbonitrile] showed an IC50 of 0.044 µM. Cn1c(=O)c(C#N)c(N2CCC(c3ccc4c(c3)CC(O)C4)CC2)c2ccccc21 (stereo not drawn) [Example 359, 4-[4-(2-hydroxy-2,3-dihydro-1H-inden-5-yl)piperidin-1-yl]-1-methyl-2-oxo-1,2-dihydroquinoline-3-carbonitrile] was tested, and the IC50 was 0.0033 µM. Cn1c(=O)c(C#N)c(N2CCC(c3ccc4c(c3)OC(C)(C)O4)CC2)c2ccccc21 [Example 360, 4-[4-(2,2-dimethyl-2H-1,3-benzodioxol-5-yl)piperidin-1-yl]-1-methyl-2-oxo-1,2-dihydroquinoline-3-carbonitrile] showed an IC50 of 0.0012 µM. Work on Cn1c(=O)c(C#N)c(N2CCC(c3ccc4c(c3)C3(CCC3)C(=O)N4)CC2)c2ccccc21 [Example 361, 1-methyl-2-oxo-4-[4-(2′-oxo-1′,2′-dihydrospiro[cyclobutane-1,3′-indol]-5′-yl)piperidin-1-yl]-1,2-dihydroquinoline-3-carbonitrile] yielded an IC50 of 0.027 µM. Work on Cn1c(=O)oc2cc(C3CCN(c4c(C#N)c(=O)n(C)c5ccccc45)CC3)ccc21 [Example 362, 1-methyl-4-[4-(3-methyl-2-oxo-2,3-dihydro-1,3-benzoxazol-6-yl)piperidin-1-yl]-2-oxo-1,2-dihydroquinoline-3-carbonitrile] yielded an IC50 of 0.106 µM. For Cc1cc(C2(C)CCN(c3c(C#N)c(=O)n(C)c4ccccc34)CC2)nc2ccccc12 [Example 364, 1-methyl-4-[4-methyl-4-(4-methylquinolin-2-yl)piperidin-1-yl]-2-oxo-1,2-dihydroquinoline-3-carbonitrile], the IC50 was 0.034 µM. Cn1ccc2c(F)cc(C3CCN(c4c(C#N)c(=O)n(C)c5ccccc45)CC3)cc21 [Example 365, 4-[4-(4-fluoro-1-methyl-1H-indol-6-yl)piperidin-1-yl]-1-methyl-2-oxo-1,2-dihydroquinoline-3-carbonitrile] gave an IC50 of 0.014 µM. Cc1cccc(-n2ccc(C3CCN(c4c(C#N)c(=O)n(C)c5ccccc45)CC3)n2)c1 [Example 366, 1-methyl-4-{4-[1-(3-methylphenyl)-1H-pyrazol-3-yl]piperidin-1-yl}-2-oxo-1,2-dihydroquinoline-3-carbonitrile] showed an IC50 of 0.012 µM. Molecule Cc1ccccc1-n1ccc(C2CCN(c3c(C#N)c(=O)n(C)c4ccccc34)CC2)n1 [Example 367, 1-methyl-4-{4-[1-(2-methylphenyl)-1H-pyrazol-3-yl]piperidin-1-yl}-2-oxo-1,2-dihydroquinoline-3-carbonitrile] has an IC50 of 0.021 µM. Molecule Cn1c(=O)c(C#N)c(N2CCC(c3ccn(-c4cccc(Cl)c4)n3)CC2)c2ccccc21 [Example 368, 4-{4-[1-(3-chlorophenyl)-1H-pyrazol-3-yl]piperidin-1-yl}-1-methyl-2-oxo-1,2-dihydroquinoline-3-carbonitrile] has an IC50 of 0.013 µM. In the case of Cn1c(=O)c(C#N)c(N2CCC(c3ccn(-c4ccc(Cl)cc4)n3)CC2)c2ccccc21 [Example 369, 4-{4-[1-(4-chlorophenyl)-1H-pyrazol-3-yl]piperidin-1-yl}-1-methyl-2-oxo-1,2-dihydroquinoline-3-carbonitrile], the IC50 is reported as 0.014 µM. With Cn1c(=O)c(C#N)c(N2CCC(c3nc(-c4cccnc4)no3)CC2)c2ccccc21 [Example 370, 1-methyl-2-oxo-4-{4-[3-(pyridin-3-yl)-1,2,4-oxadiazol-5-yl]piperidin-1-yl}-1,2-dihydroquinoline-3-carbonitrile] the IC50 was 0.158 µM. Molecule Cc1ccc2cc(C3CCN(c4c(C#N)c(=O)n(C)c5ccccc45)CC3)ccc2n1 [Example 371, 1-methyl-4-[4-(2-methylquinolin-6-yl)piperidin-1-yl]-2-oxo-1,2-dihydroquinoline-3-carbonitrile] has an IC50 of 0.014 µM. With COc1cccc(-c2csc(C3CCN(c4c(C#N)c(=O)n(C)c5ccccc45)CC3)n2)c1 [Example 372, 4-{4-[4-(3-methoxyphenyl)-1,3-thiazol-2-yl]piperidin-1-yl}-1-methyl-2-oxo-1,2-dihydroquinoline-3-carbonitrile] the IC50 was 0.014 µM. With COc1ccccc1-c1csc(C2CCN(c3c(C#N)c(=O)n(C)c4ccccc34)CC2)n1 [Example 373, 4-{4-[4-(2-methoxyphenyl)-1,3-thiazol-2-yl]piperidin-1-yl}-1-methyl-2-oxo-1,2-dihydroquinoline-3-carbonitrile] the IC50 was 0.0099 µM. Work on Cc1ccc(-c2csc(C3CCN(c4c(C#N)c(=O)n(C)c5ccccc45)CC3)n2)cc1 [Example 374, 1-methyl-4-{4-[4-(4-methylphenyl)-1,3-thiazol-2-yl]piperidin-1-yl}-2-oxo-1,2-dihydroquinoline-3-carbonitrile] yielded an IC50 of 0.034 µM. Work on Cc1nc2ccc(C3CCN(c4c(C#N)c(=O)n(C)c5ccccc45)CC3)cc2o1 [Example 376, 1-methyl-4-[4-(2-methyl-1,3-benzoxazol-6-yl)piperidin-1-yl]-2-oxo-1,2-dihydroquinoline-3-carbonitrile] yielded an IC50 of 0.014 µM. For Cc1nc2ccc(C3CCN(c4c(C#N)c(=O)n(C)c5ccccc45)CC3)cc2s1 [Example 377, 1-methyl-4-[4-(2-methyl-1,3-benzothiazol-6-yl)piperidin-1-yl]-2-oxo-1,2-dihydroquinoline-3-carbonitrile], the IC50 was 0.0048 µM. Work on Cn1c(=O)c(C#N)c(N2CCC(c3ccc4cc(C(F)F)cnc4c3)CC2)c2ccccc21 [Example 378, 4-{4-[3-(difluoromethyl)quinolin-7-yl]piperidin-1-yl}-1-methyl-2-oxo-1,2-dihydroquinoline-3-carbonitrile] yielded an IC50 of 0.023 µM. In the case of Cc1ccc2oc(C3CCN(c4c(C#N)c(=O)n(C)c5cc(OC6CCOCC6)ccc45)CC3)nc2c1 [Example 382, 1-methyl-4-[4-(5-methyl-1,3-benzoxazol-2-yl)piperidin-1-yl]-7-[(oxan-4-yl)oxy]-2-oxo-1,2-dihydroquinoline-3-carbonitrile], the IC50 is reported as 0.013 µM. COCCOc1ccc2c(N3CCC(c4nc5cc(C)ccc5o4)CC3)c(C#N)c(=O)n(C)c2c1 [Example 383, 7-(2-methoxyethoxy)-1-methyl-4-[4-(5-methyl-1,3-benzoxazol-2-yl)piperidin-1-yl]-2-oxo-1,2-dihydroquinoline-3-carbonitrile] gave an IC50 of 0.0051 µM. In the case of Cc1ccc2oc(C3CCN(c4c(C#N)c(=O)n(C)c5cc(OCC6CO6)ccc45)CC3)nc2c1 (stereo not drawn) [Example 384, 1-methyl-4-[4-(5-methyl-1,3-benzoxazol-2-yl)piperidin-1-yl]-7-{[oxiran-2-yl]methoxy}-2-oxo-1,2-dihydroquinoline-3-carbonitrile], the IC50 is reported as 0.0018 µM. Cc1ccc2oc(C3CCN(c4c(C#N)c(=O)n(C)c5cc(OC6COC6)ccc45)CC3)nc2c1 [Example 385, 1-methyl-4-[4-(5-methyl-1,3-benzoxazol-2-yl)piperidin-1-yl]-7-[(oxetan-3-yl)oxy]-2-oxo-1,2-dihydroquinoline-3-carbonitrile] was tested, and the IC50 was 0.0009 µM. COc1ccc2oc(C3CCN(c4c(C#N)c(=O)n(C)c5ccccc45)CC3)nc2c1 [Example 386, 4-[4-(5-methoxy-1,3-benzoxazol-2-yl)piperidin-1-yl]-1-methyl-2-oxo-1,2-dihydroquinoline-3-carbonitrile] showed an IC50 of 0.0094 µM. In the case of Cn1c(=O)c(C#N)c(N2CCC(c3nc4cc(OCC5CCCO5)ccc4o3)CC2)c2ccccc21 (stereo not drawn) [Example 387, 1-methyl-2-oxo-4-(4-{5-[(oxolan-2-yl)methoxy]-1,3-benzoxazol-2-yl}piperidin-1-yl)-1,2-dihydroquinoline-3-carbonitrile], the IC50 is reported as 0.0089 µM. Work on Cn1c(=O)c(C#N)c(N2CCC(c3nc4ccc(C5COC5)cc4o3)CC2)c2ccccc21 [Example 388, 1-methyl-4-{4-[6-(oxetan-3-yl)-1,3-benzoxazol-2-yl]piperidin-1-yl}-2-oxo-1,2-dihydroquinoline-3-carbonitrile] yielded an IC50 of 0.033 µM. Cn1c(=O)c(C#N)c(N2CCC(F)(c3nc4ccccc4o3)CC2)c2ccccc21 [Example 389, 4-[4-(1,3-benzoxazol-2-yl)-4-fluoropiperidin-1-yl]-1-methyl-2-oxo-1,2-dihydroquinoline-3-carbonitrile] gave an IC50 of 0.0031 µM.

— patent publication US11998539B2, “Substituted aminoquinolones as DGKalpha inhibitors for immune activation” (Bayer Aktiengesellschaft, priority 2019, dated 2024)
